From ChEMBL document CHEMBL5385923, “HPPO-Derived Meroterpenoids from the Marine-Derived Fungus Penicillium sp. SCSIO 41691” (J Nat Prod, 2024) come the findings set out here.

Data set [1] relates to RAW264.7. The data set is described as follows: Antiinflammatory activity in LPS induced mouse RAW264.7 cells assessed as inhibition of NO production at 25 uM pretreated for 2 hrs followed by LPS stimulation and measured after 24 hrs by Griess reagent based assay relative to control. The conditions noted are these: time 26 hrs. The format is functional.
Another data set relates to NCI-H1975. The data set is described as follows: Cytotoxicity against human NCI-H1975 cells assessed as inhibition of cell growth incubated for 24 hrs by CCK-8 assay. The format is functional, cell-based. The settings on record: NCI-H1975, 24 h.
A short description of data set [2]: Cytotoxicity against mouse RAW264.7 cells assessed as reduction in cell viability incubated for 2 hrs by MTT assay. The class given is toxicity, cell-based.
Data set [3] has as its system RAW264.7. The data set is described as follows: Antiinflammatory activity in LPS induced mouse RAW264.7 cells assessed as inhibition of NO production pretreated for 2 hrs followed by LPS stimulation and measured after 24 hrs by Griess reagent based assay. The format is functional, cell-based.

With `COc1ccc(-c2cc3c(c(=O)o2)C[C@H]2[C@@](C)(CC[C@@]45O[C@@](O)(OC4(C)C)[C@H](O)C[C@]25C)O3)cc1`, in the data set with RAW264.7 [1], the inhibition at 25 µM worked out at 0%. Moreover, the IC50 with NCI-H1975 was > 80 µM.
On to `COc1ccc(-c2cc3c(c(=O)o2)C[C@]2(O)[C@@]45CO[C@@H](CC4=O)C(C)(C)[C@]5(O)CC[C@@]2(C)O3)cc1OC`, for which the inhibition at 25 µM with RAW264.7 [1] turned out to be 62%. Further, the IC50 in the data set on NCI-H1975 is > 80 µM; in the data set on RAW264.7 [3] it was 21 µM. Further, the CC50 at 2 h in data set [2] was > 50 µM.
With `COc1ccc(-c2cc3c(c(=O)o2)C[C@]24O[C@]25[C@H](C)C[C@@H](O)C(C)(C)[C@]5(O)CC[C@@]4(C)O3)cc1`, the inhibition at 25 µM in the data set on RAW264.7 [1] came to 6.3%. Besides, the IC50 with NCI-H1975 is > 80 µM.
For `COc1ccc(-c2cc3c(c(=O)o2)C[C@]2(O)[C@@]4(C)[C@H](O)C[C@@H](OC(C)=O)C(C)(C)[C@]4(O)CC[C@@]2(C)O3)cc1`, in that order: 2.5% and > 80 µM.
For `COc1cc(-c2cc3c(c(=O)o2)C[C@]2(O)[C@@]45CO[C@@H](CC4=O)C(C)(C)[C@]5(O)CC[C@@]2(C)O3)cc2c1OCO2` the same measures were 11% and 15 µM.
For `COc1cc(-c2cc3c(c(=O)o2)C[C@]2(O)[C@@]45CO[C@@H](CC4=O)C(C)(C)[C@]5(O)CC[C@@]2(C)O3)cc(OC)c1OC`, in that order: 22% and > 80 µM.
For `COc1ccc(-c2cc3c(c(=O)o2)C[C@H]2[C@@](C)(CC[C@@]4(O)C(C)(C)C(=O)C=C[C@]24C)O3)cc1`, in the data set on RAW264.7 [1], the inhibition at 25 µM was 35%. The IC50 in the data set with NCI-H1975 is > 80 µM.
For `COc1ccc(-c2cc3c(c(=O)o2)C[C@]2(O)[C@@]45O[C@]4(CC[C@@]2(C)O3)C(C)(C)[C@H](O)C[C@H]5C)cc1` the same measures were 32% and 67 µM.
`COc1ccc(-c2cc3c(c(=O)o2)C[C@H]2[C@@](C)(CC[C@@]4(O)C(C)(C)OC(=O)[C@H](O)C[C@]24C)O3)cc1`: in the data set on RAW264.7 [1], the inhibition at 25 µM is 7.6%. Further, in the data set on NCI-H1975, the IC50 is > 80 µM.
With `COc1ccc2c(c1)c(CC(=O)O)c(C)n2C(=O)c1ccc(Cl)cc1` [INDOMETHACIN], the inhibition at 25 µM in the data set with RAW264.7 [1] was 57%. For the same compound, in data set [2], the CC50 at 2 h was > 50 µM. For the same compound, the half-inhibitory concentration (IC50) in the data set with RAW264.7 [3] was found to be 24 µM.
